Source: patent EP2924037A1, “QUINAZOLINE DERIVATE AND USE THEREOF AS APOPTOSIS INHIBITOR” (Linx Pharmaceutical Co., Ltd., priority 2012, dated 2013)
Like-named read-outs stand apart in the source and are kept apart here.

Legend:
pgk1 = target: T1, pgk1 (Mus musculus, UniProt P09411); test: Activity assay of pgk1 (GAPDH-coupled, absorbance at 340 nm); format: biochemical
T1 construct: His; made in house; host or cells: E. coli
T1 sequence (P09411 1-417): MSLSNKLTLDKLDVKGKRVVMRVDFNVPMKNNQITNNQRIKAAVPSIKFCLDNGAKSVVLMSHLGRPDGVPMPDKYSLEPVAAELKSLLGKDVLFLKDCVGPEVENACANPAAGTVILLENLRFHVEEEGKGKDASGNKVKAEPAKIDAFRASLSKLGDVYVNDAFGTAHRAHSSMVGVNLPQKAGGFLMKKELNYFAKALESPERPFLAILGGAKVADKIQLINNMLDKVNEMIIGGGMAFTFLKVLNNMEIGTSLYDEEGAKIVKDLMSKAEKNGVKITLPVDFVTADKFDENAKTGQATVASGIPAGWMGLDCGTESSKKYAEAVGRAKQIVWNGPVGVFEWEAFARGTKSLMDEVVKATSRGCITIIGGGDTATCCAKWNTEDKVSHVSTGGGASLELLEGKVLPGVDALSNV
Description: The recombinant mouse pgk1 protein (His-pgk1) was expressed in the E. Coli. The protein was purified by a Nickel column. The proteins were diluted to 0.15 unit /mL. Then, different concentrations of terazosin were added to determine the pgk1 activity.
According to the components of Colorimetric GAPDH Assay Kit (ScienCells), the reaction solution was prepared with solutions of GAPDH, HEPES, and MgSO4. A predetermined concentration of the compound of Formula I was added to the reaction solution (30 mM Hepes, 3 mM ATP, 0.22 mM NADH, 10 mM MgSO4, 10 mM 3-PGA, 3-4 U/ml GAPDH, pH 7.5). Absorbance was measured at 25 °C with a spectroscope (340 nm). Relative activity of pgk1 was calculated based on the changes of absorbance value within 1-10 minutes. The activity has a positive correlation with the changes of absorbance value. The absorbance of the same compound at 340 nm was subtracted in the test group.

cerebral thrombosis = test: Mouse model of cerebral thrombosis, infarct volume; format: in vivo; conditions: 0.4 mg/kg i.p.; 6 mice per condition; t-test P<0.05
Description: In a mouse model of cerebral thrombosis, the mouse brains were stained after death from thrombosis. […] The statistical analysis was performed based on % infarct volume = white area/total area, 6 mice were tested for each condition. t-test, P<0.05.

E. Coli O111:B4 = test: Oxford Cup test of antibiotic activity; format: cell-based; conditions: after 24 hrs; terazosin 0.2µg, 2µg, 200µg, 2mg; ampicillin 2mg
Description: The antibiotic activity of terazosin was measured by Oxford Cup test. Oxford Cups containing different concentrations of terazosin were placed in the petri dish wherein E. Coli O111:B4 was cultured on LB medium. The effects of terazosin and ampicillin on the growth of E. Coli were examined after 24 hrs.

[1] = test system: sepsis models (LPS; Cecal Ligation and Puncture); test: Effects against sepsis (LPS and CLP models), 7-day survival; format: in vivo, BALB/C mice; conditions: i.p. once a day for 3 days at 0.4 mg/kg; 7-day period; P < 0.05 compared to negative controls
Description: After 1.5 hours, compounds were injected (i.p.) at a predetermined concentration. Mouse survival was examined every 12 hours for 7 days. Statistical significance of the difference in the survival rates was analyzed.
Another model is Cecal Ligation and Puncture (CLP) model of sepsis. Mice were anesthetized. A 1.5-2.0 cm long abdominal midline incision was made and the cecum was exposed. After ligation 5 mm from the cecal tip, the cecum was punctured once with a 22-gauge needle, and some stool was squeezed out. Then the cecum was put back into the abdomen and the abdomen was closed by running suture. After 1.5 hours, compounds were injected (i.p.) at a predetermined concentration. Mouse survival was examined every 12 hours for 7 days. Statistical significance of the difference in the survival rates was analyzed.
These compounds were individually injected (i.p.) once a day for 3 days at 0.4 mg/kg.

[2] = Effect on serum glucose in mice; format: in vivo; conditions: Mus musculus, ip; 0.4 mg/kg i.p. once, measured 18 hours later; t-test P<0.01 for terazosin; read-out: reduction of the serum glucose level
Description: Mice were injected terazosin (0.4 mg/kg i.p.) once. The serum glucose level of the mice was measured 18 hours later. […] By the same method, exemplary compounds Co.1, Co.3, Co.7, Co.9, Co.13, Co.16, Co.19, Co.24, Co.27 and Co.32 as described in the present invention were all shown to be effective to reduce the serum glucose level by 20% to 50%.

[3] = read-out: Activity* (the times of pgk1 activity induced by 0.02µg/ml of the tested compound)
[4] = 0.02 µg/ml, read-out: activation of pgk1 represented by fold changes

| Structure (SMILES) | fold induction at 0.02 µg/mL (pgk1; [3]) | infarct volume (% infarct volume = white area/total area) (cerebral thrombosis) | inhibition in vivo at 0.4 mg/kg [2] | other results |
| --- | --- | --- | --- | --- |
| COc1cc2c(N)nc(N3CCN(C(=O)C4CCCO4)CC3)nc2cc1NC(=O)c1ccccc1 (stereo not shown) [Co.23] | 0.7 | – | – | – |
| COc1cc2nc(N3CCN(C(=O)C4CCCO4)CC3)nc(NC(=O)c3ccccc3)c2cc1OC (stereo not shown) [Co.14] | 1.5 | effective to reduce the infarct volume | – | – |
| CC1(C)S[C@@H]2[C@H](NC(=O)[C@H](N)c3ccccc3)C(=O)N2[C@H]1C(=O)O [ampicillin] | – | – | – | growth of E. coli (inhibition zones) (E. Coli O111:B4): shown to inhibit E. coli growth |
| COc1cc2nc(N3CCN(C(=O)C4CCCO4)CC3)nc(NCCOCCO)c2cc1OC (stereo not shown) [Co.2] | 2.3 | – | – | fold induction at 0.02 µg/mL (pgk1; [4]): 2.3 |
| C=CCNc1nc(N2CCN(C(=O)C3CCCO3)CC2)nc2cc(OC)c(OC)cc12 (stereo not shown) [Co.5] | 1.5 | – | – | – |
| COc1cc2nc(N3CCN(C(=O)C4CCCO4)CC3)nc(NC(=O)C(F)(F)F)c2cc1OC (stereo not shown) [Co.13] | 1.8 | effective to reduce the infarct volume | 20 to 50% | survival against sepsis [1]: significantly increased survival against sepsis |
| COc1cc2nc(N3CCN(C(=O)C4CCCO4)CC3)nc(NCCCCC(F)(F)F)c2cc1OC (stereo not shown) [Co.8] | 0.9 | effective to reduce the infarct volume | – | – |
| COc1cc2c(N)nc(N3CCN(C(=O)C4CCCO4)CC3)nc2cc1OC(C)=O (stereo not shown) [Co.17] | 1.1 | – | – | – |
| COc1cc2nc(N3CCN(C(=O)C4CCCO4)CC3)nc(Nc3ccccc3)c2cc1OC (stereo not shown) [Co.12] | 2.6 | – | – | – |
| COc1cc2nc(N3CCN(C(=O)C4CCCO4)CC3)nc(NC(C)=O)c2cc1OC (stereo not shown) [Co.1] | 2.9 | effective to reduce the infarct volume | 20 to 50% | survival against sepsis [1]: significantly increased survival against sepsis; fold induction at 0.02 µg/mL (pgk1; [4]): 2.9 |
| COc1c(OC)c(OC)c2c(N)nc(N3CCN(C(=O)C4CCCO4)CC3)nc2c1F (stereo not shown) [Co.28] | 1.2 | – | – | survival against sepsis [1]: significantly increased survival against sepsis |
| COc1c(OC)c(OC)c2c(N)nc(N3CCN(C(=O)C4CCCO4)CC3)nc2c1NC(=O)c1ccccc1 (stereo not shown) [Co.31] | 0.6 | – | – | – |
| COc1cc2nc(N3CCN(C(=O)C4CCCO4)CC3)nc(NC3CCCCC3)c2cc1OC (stereo not shown) [Co.9] | 1.4 | – | 20 to 50% | survival against sepsis [1]: significantly increased survival against sepsis |
| COc1cc2nc(N3CCN(C(=O)C4CCCO4)CC3)nc(N3CCCCC3)c2cc1OC (stereo not shown) [Co.10] | 0.7 | – | – | – |
| CCOCCOc1cc2nc(N3CCN(C(=O)C4CCCO4)CC3)nc(N)c2cc1OCCOCC (stereo not shown) [Co.16] | 1.7 | effective to reduce the infarct volume | 20 to 50% | – |
| COc1cc2nc(N3CCN(C(=O)C4CCCO4)CC3)nc(NN)c2cc1OC (stereo not shown) [Co.3] | 1.9 | – | 20 to 50% | – |

| Structure (SMILES) | fold induction at 0.02 µg/mL (pgk1; [3]) | infarct volume (% infarct volume = white area/total area) (cerebral thrombosis) | inhibition in vivo at 0.4 mg/kg [2] | other results |
| --- | --- | --- | --- | --- |
| COc1cc2c(N)nc(N3CCN(C(=O)C4CCCO4)CC3)nc2cc1OC1CC=CCC1 (stereo not shown) [Co.24] | 0.4 | – | 20 to 50% | – |
| Nc1nc(N2CCN(C(=O)C3CCCO3)CC2)nc2cc3c(cc12)OCO3 (stereo not shown) [Co.15] | 0.6 | – | – | – |
| CCCCCCNc1nc(N2CCN(C(=O)C3CCCO3)CC2)nc2cc(OC)c(OC)cc12 (stereo not shown) [Co.7] | 2.1 | effective to reduce the infarct volume | 20 to 50% | – |
| C#CCNc1nc(N2CCN(C(=O)C3CCCO3)CC2)nc2cc(OC)c(OC)cc12 (stereo not shown) [Co.6] | 1.2 | – | – | – |
| COc1c(OC)c(OC)c2c(N)nc(N3CCN(C(=O)C4CCCO4)CC3)nc2c1OC1CC=CCC1 (stereo not shown) [Co.32] | 2.8 | effective to reduce the infarct volume | 20 to 50% | – |
| COc1cc2nc(N3CCN(C(=O)C4CCCO4)CC3)nc(N(C)CCOCCO)c2cc1OC (stereo not shown) [Co.11] | 2.1 | – | – | – |
| Nc1nc(N2CCN(C(=O)C3CCCO3)CC2)nc2cc3cccnc3cc12 (stereo not shown) [Co.20] | 1.9 | – | – | – |
| COc1c(OC)c(C(F)(F)F)c2c(N)nc(N3CCN(C(=O)C4CCCO4)CC3)nc2c1N1CCCCC1 (stereo not shown) [Co.27] | 0.9 | – | 20 to 50% | – |
| Nc1nc(N2CCN(C(=O)C3CCCO3)CC2)nc2cc(N3CCCCC3)c(C(F)(F)F)cc12 (stereo not shown) [Co.19] | 1.4 | effective to reduce the infarct volume | 20 to 50% | – |
| CCOCCOc1c(OC)c(OC)c(OCCOCC)c2c(N)nc(N3CCN(C(=O)C4CCCO4)CC3)nc12 (stereo not shown) [Co.25] | 2.7 | – | – | – |
| COc1cc2nc(N3CCN(C(=O)C4CCCO4)CC3)nc(NO)c2cc1OC (stereo not shown) [Co.4] | 3.4 | effective to reduce the infarct volume | – | survival against sepsis [1]: significantly increased survival against sepsis |
| CCCCc1c(OC)c(OC)c(OC)c2c(N)nc(N3CCN(C(=O)C4CCCO4)CC3)nc12 (stereo not shown) [Co.30] | 1.8 | – | – | – |
| COc1c(OC)c(OC)c2c(N)nc(N3CCN(C(=O)C4CCCO4)CC3)nc2c1NC(C)=O (stereo not shown) [Co.29] | 2.6 | effective to reduce the infarct volume | – | survival against sepsis [1]: significantly increased survival against sepsis |
| COc1c(OC)c(OC)c2c(N)nc(N3CCN(C(=O)C4CCCO4)CC3)nc2c1OC(C)=O (stereo not shown) [Co.26] | 3.2 | – | – | – |
| CCCc1cc2nc(N3CCN(C(=O)C4CCCO4)CC3)nc(N)c2cc1OC (stereo not shown) [Co.22] | 2.4 | – | – | – |
| COc1cc2c(N)nc(N3CCN(C(=O)C4CCCO4)CC3)nc2cc1F (stereo not shown) [Co.18] | 1.3 | – | – | survival against sepsis [1]: significantly increased survival against sepsis |
